pIC50: −log10 of the molar value.
Target: T1, H^+ +K^+ ATPase (Sus scrofa, UniProt P19156)
T1 construct: prepared from porcine stomach; from tissue; host or cells: porcine stomach
Assay: H+ +K+ ATPase inhibition (inorganic phosphoric acid release)
Type: biochemical
Conditions: enzyme prepared from porcine stomach; 30 min with compound at room temperature, pH 6.1; then 30 min at 37° C., pH 7.4, 20 mM KCl
Procedure: H^+ +K^+ ATPase (adenosine triphosphatase) (amount of protein: 10 μg) prepared from porcine stomach was added to a Pipes-TRIS [i.e. 2-amino-2-(hydroxymethyl)-1,3-propanediol] buffer solution (pH 6.1) containing 2 mM of piperazine N,N'-bis(2-ethanesulfonic acid), and the mixture was let stand at room temperature. A test compound was dissolved in dimethyl formamide, and the mixture was added to said H^+ +K^+ ATPase buffer solution so that the final concentration should be 1% and let stand for reaction for 30 minutes at room temperature. Then a 75 mM Pipes-TRIS buffer (1 ml, pH 7.4) (containing 4 mM MgCl2, 4 mM Na2 ATP, and 20 mM KCl) and a 75 mM Pipes-TRIS buffer (1 ml, pH 7.4) (containing 4 mM MgCl2, and 4 mM Na2 ATP) were added to the solution individually to make two kinds of samples and these samples were presented for reaction for 30 minutes at 37° C. 40% Trichloroacetic acid (0.3 ml) was added to each sample to stop the reaction. The solution were subjected to centrifugal separation (3000 rpm) for 10 minutes, and the supernatant was taken off, then the formed inorganic phosphoric acid was measured by Fiske and Subbarow's method [J. Biol. Chem. vol. 66, 375 (1925)]. The value of deducting the amount of inorganic phosphoric acid taken from the Pipes-Tris buffer not containing 20 mM KCl from that taken from the Pipes-Tris buffer containing 20 mM KCl was calculated in terms of unit protein and unit hour to be defined as an activity index of enzyme. Inhibition level (%) in doses of administration was estimated by control values and activity indices of enzyme, and from the obtained inhibition level (%), IC50 (dose of administration of compounds to inhibit in 50%) was obtained.

T1 sequence (P19156 2-1034 limits assumed): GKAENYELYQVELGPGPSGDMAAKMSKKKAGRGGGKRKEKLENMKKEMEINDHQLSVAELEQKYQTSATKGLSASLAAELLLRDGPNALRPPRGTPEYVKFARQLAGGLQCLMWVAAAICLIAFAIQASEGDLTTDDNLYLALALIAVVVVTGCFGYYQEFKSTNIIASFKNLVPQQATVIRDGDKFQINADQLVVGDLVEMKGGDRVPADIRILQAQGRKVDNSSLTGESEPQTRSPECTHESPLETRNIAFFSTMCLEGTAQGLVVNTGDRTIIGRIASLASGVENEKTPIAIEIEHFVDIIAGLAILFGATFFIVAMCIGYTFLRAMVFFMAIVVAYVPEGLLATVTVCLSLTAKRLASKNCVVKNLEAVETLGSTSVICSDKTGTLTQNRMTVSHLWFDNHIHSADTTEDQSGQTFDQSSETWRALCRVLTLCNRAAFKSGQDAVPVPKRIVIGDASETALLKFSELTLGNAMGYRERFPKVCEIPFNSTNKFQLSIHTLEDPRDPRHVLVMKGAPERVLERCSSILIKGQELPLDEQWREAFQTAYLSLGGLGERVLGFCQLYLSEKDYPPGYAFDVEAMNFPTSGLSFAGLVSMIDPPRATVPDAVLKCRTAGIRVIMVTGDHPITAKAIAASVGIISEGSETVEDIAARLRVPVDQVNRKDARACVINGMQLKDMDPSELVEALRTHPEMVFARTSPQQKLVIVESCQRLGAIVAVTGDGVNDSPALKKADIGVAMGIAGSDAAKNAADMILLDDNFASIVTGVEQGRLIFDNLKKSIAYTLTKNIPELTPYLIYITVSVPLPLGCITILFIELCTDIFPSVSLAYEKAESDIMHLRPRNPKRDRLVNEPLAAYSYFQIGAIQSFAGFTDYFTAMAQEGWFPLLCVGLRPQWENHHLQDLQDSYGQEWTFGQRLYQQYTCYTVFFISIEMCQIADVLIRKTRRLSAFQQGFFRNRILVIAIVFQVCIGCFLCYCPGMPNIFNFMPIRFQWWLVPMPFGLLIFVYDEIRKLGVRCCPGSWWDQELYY
T1 sequence (P18434 whole entry partner): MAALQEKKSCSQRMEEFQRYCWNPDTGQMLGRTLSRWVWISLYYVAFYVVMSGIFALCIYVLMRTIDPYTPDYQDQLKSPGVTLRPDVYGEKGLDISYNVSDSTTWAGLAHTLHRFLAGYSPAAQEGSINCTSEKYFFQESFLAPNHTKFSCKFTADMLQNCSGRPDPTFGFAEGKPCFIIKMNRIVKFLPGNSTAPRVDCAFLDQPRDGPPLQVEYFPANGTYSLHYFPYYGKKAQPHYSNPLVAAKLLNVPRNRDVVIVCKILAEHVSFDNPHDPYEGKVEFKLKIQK

pIC50	SMILES
5.92	CCN1CC(CO)Cc2cccc(C[S+]([O-])c3nc4ccccc4[nH]3)c21 (stereo not drawn) [Test compound No. 54, 1-ethyl-8-(2-benzimidazolyl)sulfinylmethyl-3-hydroxymethyl-1,2,3,4-tetrahydroquinoline]
5.80	C#CCN1CCCc2cccc(C[S+]([O-])c3nc4ccccc4[nH]3)c21 (stereo not drawn) [Test compound No. 26, 1-propargyl-8-(2-benzimidazolyl)sulfinylmethyl-1,2,3,4-tetrahydroquinoline]
6.26	CC1=C(C)c2cccc(C[S+]([O-])c3nc4ccccc4[nH]3)c2N(C)C1 (stereo not drawn) [Test compound No. 42, 1,3,4-trimethyl-8-(2-benzimidazolyl)sulfinylmethyl-1,2-dihydroquinoline]
5.24	CCN1CCC(N(C)C(C)=O)c2cccc(C[S+]([O-])c3nc4ccccc4[nH]3)c21 (stereo not drawn) [Test compound No. 59, 1-ethyl-8-(2-benzimidazolyl)sulfinylmethyl-4-(N-methyl-N-acetyl)amino-1,2,3,4-tetrahydroquinoline]
6.60	CC1CCN(C)c2c(C[S+]([O-])c3nc4ccccc4[nH]3)cccc21 (stereo not drawn) [Test compound No. 29, 1,4-dimethyl-8-(2-benzimidazolyl)sulfinylmethyl-1,2,3,4-tetrahydroquinolin]
5.33	CCN1CCC(=NO)c2cccc(C[S+]([O-])c3nc4ccccc4[nH]3)c21 (stereo not drawn) [Test compound No. 50, 1-ethyl-8-(2-benzimidazolyl)sulfinylmethyl-4-hydroxyimino-1,2,3,4-tetrahydroquinoline]
6.08	C=CCN1CC(C)Cc2cccc(C[S+]([O-])c3nc4ccccc4[nH]3)c21 (stereo not drawn) [Test compound No. 38, 1-allyl-8-(2-benzimidazolyl)sulfinylmethyl-3-methyl-1,2,3,4-tetrahydroquinoline]
5.17	CN1CCC(=O)c2cccc(C[S+]([O-])c3nc4ccccc4[nH]3)c21 (stereo not drawn) [Test compound No. 43, 1-methyl-8-(2-benzimidazolyl)sulfinylmethyl-4-oxo-1,2,3,4-tetrahydroquinoline]
6.28	Cc1ccc2nc([S+]([O-])Cc3cccc4c3N(C)CCC4)[nH]c2c1 (stereo not drawn) [Test compound No. 17, 1-methyl-8-(5-methyl-2-benzimidazolyl)sulfinylmethyl-1,2,3,4-tetrahydroquinoline]
5.66	CN1CCC(C)(O)c2cccc(C[S+]([O-])c3nc4ccccc4[nH]3)c21 (stereo not drawn) [Test compound No. 45, 1,4-dimethyl-8-(2-benzimidazolyl)sulfinylmethyl-4-hydroxy-1,2,3,4-tetrahydroquinoline]
5.72	CCN1CC(C(=O)O)Cc2cccc(C[S+]([O-])c3nc4ccccc4[nH]3)c21 (stereo not drawn) [Test compound No. 56, 1-ethyl-8-(2-benzimidazolyl)sulfinylmethyl-3-carboxy-1,2,3,4-tetrahydroquinoline 1/2hydrate]
6.77	CN1CCCc2cccc(C[S+]([O-])c3nc4ccccc4[nH]3)c21 (stereo not drawn) [Test compound No. 14, 1-methyl-8-(2-benzimidazolyl)sulfinylmethyl-1,2,3,4-tetrahydroquinoline]
6.64	CCN1CC=C(C)c2cccc(C[S+]([O-])c3nc4ccccc4[nH]3)c21 (stereo not drawn) [Test compound No. 41, 1-ethyl-8-(2-benzimidazolyl)sulfinylmethyl-4-methyl-1,2-dihydroquinoline 1/2-hydrate]
6.35	CCN1CCCc2cccc(C[S+]([O-])c3nc4ccccc4[nH]3)c21 (stereo not drawn) [Test compound No. 36, 1-ethyl-8-(2-benzimidazolyl)sulfinylmethyl-1,2,3,4-tetrahydroquinoline]
6.28	CN1CCCc2cccc(C[S+]([O-])c3nc4ccc(F)cc4[nH]3)c21 (stereo not drawn) [Test compound No. 15, 1-methyl-8-(5-fluoro-2-benzimidazolyl)sulfinylmethyl-1,2,3,4-tetrahydroquinoline]
5.54	C=CCOC1CCN(CC)c2c(C[S+]([O-])c3nc4ccccc4[nH]3)cccc21 (stereo not drawn) [Test compound No. 51, 1-ethyl-8-(2-benzimidazolyl)sulfinylmethyl-4-allyloxy-1,2,3,4-tetrahydroquinoline]

Second part, the molecule before the results:

SMILES	pIC50
CCOc1cc2[nH]c([S+]([O-])Cc3cccc4c3N(CC)CCC4)nc2cc1F (stereo not drawn) [Test compound No. 7, 1-ethyl-8-(5-ethoxy-6-fluoro-2-benzimidazolyl)sulfinylmethyl-1,2,3,4-tetrahydroquinoline]	5.80
CCN1CCCc2cccc(C[S+]([O-])c3nc4cc(C)c(C)cc4[nH]3)c21 (stereo not drawn) [Test compound No. 13, 1-ethyl-8-(5,6-dimethyl-2-benzimidazolyl)sulfinylmethyl-1,2,3,4-tetrahydroquinoline]	6.77
CCN1CCCc2cccc(C[S+]([O-])c3nc4cc(F)c(F)cc4[nH]3)c21 (stereo not drawn) [Test compound No. 5, 1-ethyl-8-(5,6-difluoro-2-benzimidazolyl)sulfinylmethyl-1,2,3,4-tetrahydroquinoline]	6.36
C=CCN(C)C1CCNc2c(C[S+]([O-])c3nc4cc(F)c(OC)cc4[nH]3)cccc21 (stereo not drawn) [Test compound No. 71, 8-(5-fluoro-6-methoxy-2-benzimidazolyl)sulfinylmethyl-4-(N-allyl-N-methyl)amino-1,2,3,4-tetrahydroquinoline]	5.24
CCN1CCC(N(C=O)C2CC2)c2cccc(C[S+]([O-])c3nc4cc(F)c(OC)cc4[nH]3)c21 (stereo not drawn) [Test compound No. 65, 1-ethyl-8-(5-fluoro-6-methoxy-2-benzimidazolyl)sulfinylmethyl-4-(N-formyl-N-cyclopropyl)amino-1,2,3,4-tetrahydroquinoline]	5.55
CCN1CCCc2cccc(C[S+]([O-])c3nc4cc(OC)c(F)cc4[nH]3)c21 (stereo not drawn) [Test compound No. 6, 1-ethyl-8-(5-fluoro-6-methoxy-2-benzimidazolyl)sulfinylmethyl-1,2,3,4-tetrahydroquinoline]	6.21
COc1ccc2nc([S+]([O-])Cc3cccc4c3N(C)CCC4)[nH]c2c1 (stereo not drawn) [Test compound No. 16, 1-methyl-8-(5-methoxy-2-benzimidazolyl)sulfinylmethyl-1,2,3,4-tetrahydroquinoline]	6.16
CCN1CCC(CO)c2cccc(C[S+]([O-])c3nc4cc(OC)c(F)cc4[nH]3)c21 (stereo not drawn) [Test compound No. 63, 1-ethyl-8-(5-fluoro-6-methoxy-2-benzimidazolyl)sulfinylmethyl-4-hydroxymethyl-1,2,3,4-tetrahydroquinoline]	5.35
CCN1CCCc2cccc(C[S+]([O-])c3nc4cccc(C)c4[nH]3)c21 (stereo not drawn) [Test compound No. 11, 1-ethyl-8-(4-methyl-2-benzimidazolyl)sulfinylmethyl-1,2,3,4-tetrahydroquinoline]	6.30
CCN1CC=C(C(F)(F)F)c2cccc(C[S+]([O-])c3nc4ccccc4[nH]3)c21 (stereo not drawn) [Test compound No. 72, 1-ethyl-8-(2-benzimidazolyl)sulfinylmethyl-4-trifluoromethyl-1,2-dihydroquinoline]	5.48
COc1ccc2nc([S+]([O-])Cc3cccc4c3N(C)CC=C4C)[nH]c2c1 (stereo not drawn) [Test compound No. 40, 1,4-dimethyl-8-(5-methoxy-2-benzimidazolyl)sulfinylmethyl-1,2-dihydroquinoline]	6.28
CCN1CCCc2cccc(C[S+]([O-])c3nc4ccc(OC)cc4[nH]3)c21 (stereo not drawn) [Test compound No. 3, 1-ethyl-8-(5-methoxy-2-benzimidazolyl)sulfinylmethyl-1,2,3,4-tetrahydroquinoline]	6.35
COc1cc2nc([S+]([O-])Cc3cccc4c3N(C)CCC4)[nH]c2cc1F (stereo not drawn) [Test compound No. 20, 1-methyl-8-(5-fluoro-6-methoxy-2-benzimidazolyl)sulfinylmethyl-1,2,3,4-tetrahydroquinoline]	6.48
Cc1cccc2nc([S+]([O-])Cc3cccc4c3N(C)CCC4)[nH]c12 (stereo not drawn) [Test compound No. 19, 1-methyl-8-(4-methyl-2-benzimidazolyl)sulfinylmethyl-1,2,3,4-tetrahydroquinoline]	6.39
CCN1CC(C)(C)C(OC)c2cccc(C[S+]([O-])c3nc4ccc(C)cc4[nH]3)c21 (stereo not drawn) [Test compound No. 66, 1-ethyl-8-(5-methyl-2-benzimidazolyl)sulfinylmethyl-4-methoxy-3,3-dimethyl-1,2,3,4-tetrahydroquinoline]	6.48
Cc1ccc2nc([S+]([O-])Cc3cccc4c3N(Cc3ccc(F)cc3)CCC4)[nH]c2c1 (stereo not drawn) [Test compound No. 34, 1-(4-fluorobenzyl)-8-(5-methyl-2-benzimidazolyl)sulfinylmethyl-1,2,3,4-tetrahydroquinoline]	5.68
CCN1CCC(C)c2cccc(C[S+]([O-])c3nc4cc(OC)c(F)cc4[nH]3)c21 (stereo not drawn) [Test compound No. 37, 1-ethyl-8-(5-fluoro-6-methoxy-2-benzimidazolyl)sulfinylmethyl-4-methyl-1,2,3,4-tetrahydroquinoline]	6.05

— patent US4963566A, “Benzimidazolyl-sulfinyl-tetrahydroquinolines” (Otsuka Pharmaceutical Co., Ltd., priority 1986, dated 1990)
